According to article PMC8880564, “Design, Synthesis, and Biological Evaluation of a Novel VEGFR-2 Inhibitor Based on a 1,2,5-Oxadiazole-2-Oxide Scaffold with MAPK Signaling Pathway Inhibition” (Pharmaceuticals, 2022):
Where two headings read alike, the source gives them in different places.

How the values were obtained:
Assay type in all cases: cell-based
A498 = test: NCI-60 one-dose SRB screening; details: Homo sapiens, A498, Renal Cancer, 10 µM one dose, 48 h, read-out: growth percentage
Method: (§1) The structures of the synthesized compounds 6a–h, 12a–c, 11, 13a–c, and 14a–c were submitted to the National Cancer Institute’s Developmental Therapeutics Program (NCI-DTP), and all of them were selected for preliminary in vitro anticancer activity screening against NCI-59 human cancer cell lines at a concentration of 10 µM, using the sulforhodamine B (SRB) assay to determine the growth percentage and cell viability.
(§2) The in vitro NCI-60 cell line screening assay was conducted at the National Cancer Institute (NCI), Bethesda, USA against 59 cancer cell lines representing 9 types of cancers, as reported earlier. Briefly, the human cancer cell lines were grown in RPMI 1640 medium containing 5% fetal bovine serum and 2 mM L-glutamine and inoculated into 96-well microtiter plates in 100 μL (5000 to 40,000 cells/well). Then, the plates were incubated at 37 °C, 5% CO2, 95% air, and 100% relative humidity for 24 h. After that, two plates of each cell line were fixed in situ with TCA, to represent cell population at time zero (Tz). The tested compounds were dissolved in DMSO at 400-fold and added so that the final concentration became 10 μM. The plates were then incubated for an additional 48 h followed by the addition of cold TCA to terminate the assay in case of adherent cells. Then, the cells were fixed in situ by cold 50% (w/v) TCA (50 μL; final concentration, 10% TCA) and incubated for 1 h at 4 °C. After discarding the supernatant, the plates were washed 5 times with tap water and air dried. Sulforhodamine B (SRB) solution (100 μL) at 0.4% (w/v) in 1% HOAc was added to each well, and plates were incubated for 10 min. at rt. Then, washing with 1% acetic acid was conducted 5 times to remove the unbound dye followed by air drying. After that, 10 mM trizma base was added to solubilize the bound stain, and the absorbance was read on an automated plate reader at a wavelength of 515 nm. On the other hand, the methodology for suspension cells was the same except that 50 μL of 80% TCA (final concentration, 16% TCA) was gently added to terminate the assay by fixing settled cells at the bottom of the wells. Percentage growth inhibition (GI%) was calculated as follows:
(§3) Growth percentage=Ti (test growth in the presence of compound at 10 µM )−Tz (time zero)/C (control growth)−Tz (time zero)×100 for Ti ≥ Tz;
(§4) Growth percentage=Ti (test growth in the presence of compound at 10 µM )−Tz (time zero)/Tz (time zero)×100 for Ti < Tz.
(§5) where values of 100, 40, 0, −40, and −100 mean no GI, 60% GI, no net G, 40% lethality, and all cells are dead, respectively.

ACHN = test: NCI-60 one-dose SRB screening; details: Homo sapiens, Renal Cancer, 10 µM one dose, 48 h, read-out: growth percentage
Method: as §1, §2, §3, §4, §5

BT-549 = test: NCI-60 one-dose SRB screening; details: Homo sapiens, BT-549, Breast Cancer, 10 µM one dose, 48 h, read-out: growth percentage
Method: as §1, §2, §3, §4, §5

HOP-62 = test: NCI-60 one-dose SRB screening; details: Homo sapiens, HOP-62, Non-Small Cell Lung Cancer, 10 µM one dose, 48 h, read-out: growth percentage
Method: as §1, §2, §3, §4, §5

HT29 = test: NCI-60 one-dose SRB screening; details: Homo sapiens, HT-29, HT29, Colon Cancer, 10 µM one dose, 48 h, read-out: growth percentage
Method: as §1, §2, §3, §4, §5

IGROV1 = test: NCI-60 one-dose SRB screening; details: Homo sapiens, IGROV-1, IGROV1, Ovarian Cancer, 10 µM one dose, 48 h, read-out: growth percentage
Method: as §1, §2, §3, §4, §5

LOX IMVI = test: NCI-60 one-dose SRB screening; details: Homo sapiens, Melanoma, 10 µM one dose, 48 h, read-out: growth percentage
Method: as §1, §2, §3, §4, §5

M14 = test: NCI-60 one-dose SRB screening; details: Homo sapiens, M14, Melanoma, 10 µM one dose, 48 h, read-out: growth percentage
Method: as §1, §2, §3, §4, §5

MCF7 = test: NCI-60 one-dose SRB screening; details: Homo sapiens, MCF7, Breast Cancer, 10 µM one dose, 48 h, read-out: growth percentage
Method: as §1, §2, §3, §4, §5

MDA-MB-468 = test: NCI-60 one-dose SRB screening; details: Homo sapiens, MDA-MB-468, Breast Cancer, 10 µM one dose, 48 h, read-out: growth percentage
Method: as §1, §2, §3, §4, §5

MOLT-4 = test: NCI-60 one-dose SRB screening; details: Homo sapiens, MOLT-4, Leukemia, 10 µM one dose, 48 h, read-out: growth percentage
Method: as §1, §2, §3, §4, §5

NCI-H322M = test: NCI-60 one-dose SRB screening; details: Homo sapiens, Non-Small Cell Lung Cancer, 10 µM one dose, 48 h, read-out: growth percentage
Method: as §1, §2, §3, §4, §5

NCI-H522 = test: NCI-60 one-dose SRB screening; details: Homo sapiens, NCI-H522, Non-Small Cell Lung Cancer, 10 µM one dose, 48 h, read-out: growth percentage
Method: as §1, §2, §3, §4, §5

NCI/ADR-RES = test: NCI-60 one-dose SRB screening; details: Homo sapiens, Ovarian Cancer, 10 µM one dose, 48 h, read-out: growth percentage
Method: as §1, §2, §3, §4, §5

OVCAR-8 = test: NCI-60 one-dose SRB screening; details: Homo sapiens, OVCAR-8, Ovarian Cancer, 10 µM one dose, 48 h, read-out: growth percentage
Method: as §1, §2, §3, §4, §5

SK-MEL-2 = test: NCI-60 one-dose SRB screening; details: Homo sapiens, SK-MEL-2, Melanoma, 10 µM one dose, 48 h, read-out: growth percentage
Method: as §1, §2, §3, §4, §5

SK-OV-3 = test: NCI-60 one-dose SRB screening; details: Homo sapiens, SK-OV-3, Ovarian Cancer, 10 µM one dose, 48 h, read-out: growth percentage
Method: as §1, §2, §3, §4, §5

SN12C = test: NCI-60 one-dose SRB screening; details: Homo sapiens, Renal Cancer, 10 µM one dose, 48 h, read-out: growth percentage
Method: as §1, §2, §3, §4, §5

SNB-19 = test: NCI-60 one-dose SRB screening; details: Homo sapiens, SNB-19, CNS Cancer, 10 µM one dose, 48 h, read-out: growth percentage
Method: as §1, §2, §3, §4, §5

SW-620 = test: NCI-60 one-dose SRB screening; details: Homo sapiens, SW-620, Colon Cancer, 10 µM one dose, 48 h, read-out: growth percentage
Method: as §1, §2, §3, §4, §5

T-47D = test: NCI-60 one-dose SRB screening; details: Homo sapiens, T47D, Breast Cancer, 10 µM one dose, 48 h, read-out: growth percentage
Method: as §1, §2, §3, §4, §5

[1] = test system: NCI-59 human cancer cell lines; test: NCI-60 one-dose SRB screening, full panel and subpanels; details: for activity at 10 µM / inhibition at 10 µM: Homo sapiens; for activity at 10 µM: mean over the full panel, 10 µM one dose, 48 h, SRB, read-out: growth percentage, Mean
Method: as §1, §2, §3, §4, §5
Data are expressed as a one-dose mean graph of growth percentages including the mean, delta, and range.

[2] = full NCI-59 panel, 10 µM, read-out: mean growth inhibition % (MGI%, GI%)

Row | SMILES | activity at 10 µM (A498) [%] | activity at 10 µM (ACHN) [%] | activity at 10 µM (BT-549) [%] | activity at 10 µM (HOP-62) [%] | activity at 10 µM (HT29) [%] | activity at 10 µM (IGROV1) [%] | activity at 10 µM (LOX IMVI) [%] | activity at 10 µM (M14) [%] | activity at 10 µM (MCF7) [%] | activity at 10 µM (MDA-MB-468) [%] | activity at 10 µM (MOLT-4) [%] | activity at 10 µM (NCI-H322M) [%] | activity at 10 µM (NCI-H522) [%] | activity at 10 µM (NCI/ADR-RES) [%] | activity at 10 µM (OVCAR-8) [%] | activity at 10 µM (SK-MEL-2) [%] | activity at 10 µM (SK-OV-3) [%] | activity at 10 µM (SN12C) [%] | activity at 10 µM (SNB-19) [%] | activity at 10 µM (SW-620) [%] | further results
1 | Cc1nc(Nc2ccc(OCc3c(-c4ccccc4)no[n+]3[O-])cc2)c2cnn(-c3ccc(Br)cc3)c2n1 [6f, 3-((4-((1-(4-bromophenyl)-6-methyl-1H-pyrazolo[3,4-d]pyrimidin-4-yl)amino)phenoxy)methyl)-4-phenyl-1,2,5-oxadiazole 2-oxide] | 87.2 | 101 | 94.5 | 110 | 97.3 | 101 | 105 | 94.2 | 85.3 | 111 | 91.5 | 90.8 | 92.5 | 106 | 106 | 114 | 113 | 94.8 | 91.5 | 109 | activity at 10 µM (T-47D): 97.2%; activity at 10 µM [1]: 99.7%; mean growth inhibition % (MGI%, GI%) ([1]; full NCI-59 panel, 10 µM): no mean growth inhibition percentage
2 | Cc1nn(-c2ccc(Br)cc2)c2ncnc(Nc3ccc(OCc4c(-c5ccccc5)no[n+]4[O-])cc3)c12 [6g, 3-((4-((1-(4-bromophenyl)-3-methyl-1H-pyrazolo[3,4-d]pyrimidin-4-yl)amino)phenoxy)methyl)-4-phenyl-1,2,5-oxadiazole 2-oxide] | 106 | 88 | 104 | 94 | 101 | 88.2 | 95 | 94 | 89 | 97.4 | 97.7 | 94.5 | 92 | 93.8 | 93.9 | 101 | 96.2 | 91.3 | 99.2 | 107 | activity at 10 µM (T-47D): 98.5%; inhibition at 10 µM [1, 2]: 1.58 to 4.57%; activity at 10 µM [1]: 98.4%
3 | Cc1nc(Nc2ccc(OCc3c(-c4ccccc4)no[n+]3[O-])cc2)c2c(C)nn(-c3ccc(Br)cc3)c2n1 [6h, 3-((4-((1-(4-bromophenyl)-3,6-dimethyl-1H-pyrazolo[3,4-d]pyrimidin-4-yl)amino)phenoxy)methyl)-4-phenyl-1,2,5-oxadiazole 2-oxide] | 110 | 98.7 | 91.1 | 104 | 90 | 99 | 98.9 | 89.5 | 87.4 | 116 | 87.6 | 94.4 | 84 | 102 | 102 | 96.9 | 109 | 96.4 | 94.5 | 101 | activity at 10 µM (T-47D): 81.4%; inhibition at 10 µM [1, 2]: 1.58 to 4.57%; activity at 10 µM [1]: 95.4%
4 | Cc1nn(-c2ccccc2)c2nc(C(F)(F)F)nc(Nc3ccc(NCc4c(-c5ccccc5)no[n+]4[O-])cc3)c12 [12a, 3-(((4-((3-methyl-1-phenyl-6-(trifluoromethyl)-1H-pyrazolo[3,4-d]pyrimidin-4-yl)amino)phenyl)amino)methyl)-4-phenyl-1,2,5-oxadiazole 2-oxide] | 94.4 | 77.7 | 103 | 93.1 | 61.5 | 77.9 | 58 | 68.7 | 58.5 | 75.8 | 56.4 | 77.6 | 91.4 | 83 | 89.7 | 106 | 96.9 | 77.7 | 88 | 86 | activity at 10 µM (T-47D): 80.5%; activity at 10 µM [1]: 76.8%
5 | [O-][n+]1onc(-c2ccccc2)c1CNc1ccc(Nc2nc(C(F)(F)F)nc3c2cnn3-c2ccc(Br)cc2)cc1 [12b, 3-(((4-((1-(4-bromophenyl)-6-(trifluoromethyl)-1H-pyrazolo[3,4-d]pyrimidin-4-yl)amino)phenyl)amino)methyl)-4-phenyl-1,2,5-oxadiazole 2-oxide] | 97.4 | 56.9 | 97.5 | 77.9 | 43.9 | 60.1 | 27.9 | 68.2 | 38.8 | 72 | 47 | 74.1 | 72.6 | 66.4 | 72.8 | 99.8 | 88.8 | 58 | 78.9 | 84.8 | activity at 10 µM (T-47D): 68.8%; inhibition at 10 µM ([1]; CNS cancer cell lines, 10 µM, read-out: growth-inhibitory % activity, up to): ≤ 45%; inhibition at 10 µM ([1]; breast cancer cells, 10 µM, read-out: growth-inhibitory % activity, up to): ≤ 61%; inhibition at 10 µM ([1]; colon cancer cell lines, 10 µM, read-out: growth-inhibitory % activity, up to): ≤ 62%; inhibition at 10 µM ([1]; leukemia cell lines, 10 µM, read-out: growth-inhibitory % activity, up to): ≤ 77%; inhibition at 10 µM ([1]; melanoma cell lines, 10 µM, read-out: growth-inhibitory % activity, up to): ≤ 72%; inhibition at 10 µM ([1]; non-small cell lung cancer cell lines, 10 µM, read-out: growth-inhibitory % activity, up to): ≤ 64%; inhibition at 10 µM ([1]; ovarian cancer cell lines, 10 µM, read-out: growth-inhibitory % activity, up to): ≤ 40%; inhibition at 10 µM ([1]; prostate cancer cell lines, 10 µM, read-out: growth-inhibitory % activity, up to): ≤ 52%; inhibition at 10 µM ([1]; renal cancer cell lines, 10 µM, read-out: growth-inhibitory % activity, up to): ≤ 69%; activity at 10 µM [1]: 66.8%
